Measurements as given in ChEMBL document CHEMBL5512621, “Overview of the development of protein arginine methyltransferase modulators: Achievements and future directions” (Eur J Med Chem, 2024).

What was measured:
[1] = molecular target: T1, Protein arginine N-methyltransferase 7 (Homo sapiens, UniProt Q9NVM4); experiment: Inhibition of PRMT7 (unknown origin)
T1 sequence (Q9NVM4 whole entry): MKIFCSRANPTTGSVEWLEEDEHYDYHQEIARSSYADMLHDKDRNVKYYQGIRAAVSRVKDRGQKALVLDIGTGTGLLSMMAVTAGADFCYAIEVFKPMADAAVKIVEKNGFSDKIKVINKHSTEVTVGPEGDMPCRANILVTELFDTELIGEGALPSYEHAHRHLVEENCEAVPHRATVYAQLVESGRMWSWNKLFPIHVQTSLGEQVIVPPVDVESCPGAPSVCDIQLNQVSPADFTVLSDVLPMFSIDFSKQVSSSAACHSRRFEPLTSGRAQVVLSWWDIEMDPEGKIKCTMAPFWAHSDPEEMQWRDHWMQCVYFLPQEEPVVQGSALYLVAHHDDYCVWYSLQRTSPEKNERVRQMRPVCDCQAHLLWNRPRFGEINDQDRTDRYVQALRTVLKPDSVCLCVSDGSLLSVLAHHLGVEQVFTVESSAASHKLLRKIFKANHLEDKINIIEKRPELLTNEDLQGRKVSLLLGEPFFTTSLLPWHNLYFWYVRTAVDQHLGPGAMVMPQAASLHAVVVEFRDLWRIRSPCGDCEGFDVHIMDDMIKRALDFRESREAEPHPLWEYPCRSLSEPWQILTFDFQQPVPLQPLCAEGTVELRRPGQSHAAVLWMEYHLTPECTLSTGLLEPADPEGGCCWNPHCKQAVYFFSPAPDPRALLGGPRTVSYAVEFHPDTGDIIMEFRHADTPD

[2] = tested on: PC-3; experiment: Inhibition of cell growth in human PC-3 cells; assay type: functional, cell-based
[3] = tested on: JeKo-1; experiment: Inhibition of cell growth in human JeKo-1 cells; assay type: functional, cell-based
[4] = tested on: ES-2; experiment: Inhibition of cell growth in human ES2 cells; assay type: functional, cell-based
[5] = molecular target: T2, Protein arginine N-methyltransferase 7 (Mus musculus, UniProt Q922X9); experiment: Inhibition of PRMT7 in mouse C2C12 cells assessed as reduction in HSP70 methylation; assay type: cell-based
T2 sequence (Q922X9 whole entry): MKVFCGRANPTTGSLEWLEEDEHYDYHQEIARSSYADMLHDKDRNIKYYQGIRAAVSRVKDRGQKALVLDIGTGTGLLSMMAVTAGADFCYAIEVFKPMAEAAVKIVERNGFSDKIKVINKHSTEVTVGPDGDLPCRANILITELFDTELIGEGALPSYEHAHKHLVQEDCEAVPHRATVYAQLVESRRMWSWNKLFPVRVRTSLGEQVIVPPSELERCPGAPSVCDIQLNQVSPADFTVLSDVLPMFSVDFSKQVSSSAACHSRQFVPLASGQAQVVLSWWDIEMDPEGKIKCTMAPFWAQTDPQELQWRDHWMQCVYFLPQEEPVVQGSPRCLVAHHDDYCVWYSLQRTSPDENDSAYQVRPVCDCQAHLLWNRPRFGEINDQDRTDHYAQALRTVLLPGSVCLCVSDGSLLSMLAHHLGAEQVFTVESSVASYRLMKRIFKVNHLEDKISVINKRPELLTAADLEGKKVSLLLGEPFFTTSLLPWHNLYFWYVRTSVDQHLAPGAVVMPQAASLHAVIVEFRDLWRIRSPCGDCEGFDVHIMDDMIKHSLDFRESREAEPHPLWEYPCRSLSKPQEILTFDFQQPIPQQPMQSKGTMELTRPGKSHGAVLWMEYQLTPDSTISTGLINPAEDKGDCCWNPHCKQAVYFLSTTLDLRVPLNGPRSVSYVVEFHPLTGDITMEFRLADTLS

| IC50 [1] [nM] | IC50 [2] [nM] | IC50 [5] [nM] | SMILES | IC50 [3] [nM] | IC50 [4] [nM] |
| --- | --- | --- | --- | --- | --- |
| 2100 | < 10000 | – | COc1cc(-c2ncc(F)c(Nc3ccc4cc(C)cc(N)c4c3)n2)cc(OC)c1OC | < 10000 | < 10000 |
| – | – | 2400 | CC1=C(C)C(=O)C(C(C)(C)CC(=O)N(CCCCSC[C@H]2O[C@@H](n3cnc4c(N)ncnc43)[C@H](O)[C@@H]2O)Cc2ccc(-c3ccc(Cl)cc3)cc2)=C(C)C1=O | – | – |
